Assay results as given in US20250073177A1, “LIPID NANOPARTICLES FOR OLIGONUCLEOTIDE DELIVERY” (ZIPHIUS NV, priority 2021, published 2025).

Legend:
[1] = saRNA encapsulation in LNP, Quant-IT RiboGreen assay; type: physicochemical; settings: LNP with firefly luciferase saRNA, RiboGreen with or without Triton X-100
Protocol: The saRNA loading in LNP formulations was quantified using a Quant-IT RiboGreen assay (Thermo Fisher Scientific, Waltham, Massachusetts, USA) as previously described. 14 samples were diluted tenfold in 1×Tris HCL-EDTA (TE) buffer (10 mM Tris-HCL, 1 mM EDTA, pH 7.5) with or without 2% (v/v) Triton X-100 (Sigma-Aldrich, Saint Louis, Missouri, USA). Standard solutions were also prepared in 1×TE with or without 2% (v/v) Triton X-100 to account for any variation in fluorescence. The assay was performed according to the manufacturer's protocol. Samples were loaded on a black 96-well plate and analysed for fluorescence on a microplate reader (Tecan Infinite® 200 PRO) at an excitation of 485 nm and emission at 528 nm. Encapsulation efficiency was calculated between 80-100%. See Table 3 below for the results obtained.

[2] = LNP particle size, polydispersity index and charge by Zeta Sizer; type: physicochemical; settings: LNP lipid:DOPE:Cholesterol:DMG-PEG 35:20:43.5:1.5, N/P about 40/1, firefly luciferase saRNA
Protocol: Cationic lipids, DOPE, Cholesterol and DMG-PEG lipid were solubilized in ethanol or DMSO at a molar ratio of 35:20:43.5:1.5 and a concentration of 100:25:20:25 μg/μL for C12-200 or 170:25:20:25 μg/μL for the comparator lipids. Lipid nanoparticles (LNP) were prepared by targeting an N/P ratio of approximately 40/1 with saRNA. Briefly, the firefly luciferase saRNA of approximately 9659 nucleotides was diluted to 0.5 mg/mL in 5 mM citrate buffer, pH 4.5. Microfluidic mixer (Ignite from Precision Nanosystems, California, USA) was used to mix the lipid solution with the saRNA aqueous solution at a ratio of about 1:3 (vol/vol) with total flow rates above 10 ml/min. The ethanol was then removed, and the external buffer replaced with 10 mM TRIS-HCL, PH 7.4, by dialysis. Finally, the lipid nanoparticles were filtered through a 0.2 μm pore sterile filter. Lipid nanoparticle particle size was 50-150 nm diameter and polydispersity index (PI) of 0.1-0.4 as determined by Zeta Sizer (Malvern Panalytical, UK). The charge of the formulation was also measured by Zeta Sizer and ranged between 20 to −20 mV.

[3] = Body weight of mice after injection of LNP-formulated luciferase saRNA; type: in vivo; settings: 1 μg luciferase saRNA in LNP
Protocol: (§1) Female SWISS mice (6 weeks old) were purchased from Janvier Laboratories (Paris, France) and kept in individually ventilated cages with access to food and water ad libitum. Mice were anesthetized with isoflurane (Zoetis, Louvain-La-Neuve, Belgium) (5% for induction and 2% for maintenance) and intramuscularly injected with a total of 1 μg in 100 μL Tris-HCL (50 μL per leg) LNP-formulated luciferase saRNA (for each group n=7). The expression of the luciferase induced bioluminescence was measured via non-invasive In vivo bioluminescent imaging (In vivo Imaging System (IVIS) Lumina III, Perkin Elmer, Waltham, Massachusetts, USA), 10 minutes after subcutaneous injection of 200 μL of D-luciferin (GoldBio, Saint Louis, Missouri, USA, #LUCK-1G) were measured in day 0 (before injection), day 1, day 3, day 5, day 7, day 10, day 15 and day 20.
See Tables 4 and FIG. 1 for the results showing higher expression of the saRNA compared to prior art compounds at day 15 onwards when administered in LNPs comprising compounds of the invention. Table 5 supports good tolerability of the compounds of the invention.

Female SWISS mice = test: In vivo bioluminescent imaging of LNP-formulated luciferase saRNA expression; settings: 1 μg luciferase saRNA in LNP
Protocol: as §1

[4] = Day 0 (before injection), intramuscular

Encapsulation [1] [%]	Polydispersity Index (PI) [2]	Z-average [2] [nm]	Zetapotential [2] [mV]	Compound	Weight [3, 4] [g]	Weight ([3]; Day 1, intramuscular) [g]	Weight ([3]; Day 3, intramuscular) [g]	Weight ([3]; Day 5, intramuscular) [g]	Weight ([3]; Day 7, intramuscular) [g]	Weight ([3]; Day 10, intramuscular) [g]	Weight ([3]; Day 15, intramuscular) [g]	Weight ([3]; Day 20, intramuscular) [g]	Bioluminescence expression of LNPs (Female SWISS mice; [4])	Bioluminescence expression of LNPs (Female SWISS mice; Day 1, intramuscular)	Bioluminescence expression of LNPs (Female SWISS mice; Day 3, intramuscular)	Bioluminescence expression of LNPs (Female SWISS mice; Day 5, intramuscular)	Bioluminescence expression of LNPs (Female SWISS mice; Day 7, intramuscular)	Bioluminescence expression of LNPs (Female SWISS mice; Day 10, intramuscular)	Bioluminescence expression of LNPs (Female SWISS mice; Day 15, intramuscular)	Bioluminescence expression of LNPs (Female SWISS mice; Day 20, intramuscular)
99.03	0.16	70.96	9.07	CCCCCCCCCCCCCCOC(=O)CCN(CCC(=O)OCCCCCCCCCCCCCC)CCN1CCN(CCN(CCC(=O)OCCCCCCCCCCCCCC)CCC(=O)OCCCCCCCCCCCCCC)CC1 [Comparator 1, reference compound]	26.56	25.99	27.21	27.59	27.09	27.17	29.43	30.11	–	–	–	–	–	–	–	–
98.64	0.16	85.72	−12.65	CCCCCCC(CCCC)C(=O)NCCN1CCN(CCN(CCCCOC(=O)C(CCCC)CCCCCC)CCCCOC(=O)C(CCCC)CCCCCC)CC1 (stereo not shown) [Compound 8-27, ((2-(4-(2-(2-butyloctanamido)ethyl)piperazin-1-yl)ethyl)azanediyl)bis(butane-4,1-diyl) bis(2-butyloctanoate)]	27.07	26.01	27.57	28.86	28.40	28.67	29.44	30.57	8.55E+04	1.40E+08	9.90E+08	7.71E+08	2.35E+08	6.86E+06	7.44E+05	8.29E+05
99.04	0.23	81.44	−20.01	CCCCCCC(CCCC)C(=O)OCCCCN(CCCCOC(=O)C(CCCC)CCCCCC)CCN1CCN(CCOC(=O)C(CCCC)CCCCCC)CC1 (stereo not shown) [Compound 8-41, ((2-(4-(2-((2-butyloctanoyl)oxy)ethyl)piperazin-1-yl)ethyl)azanediyl)bis(butane-4,1-diyl) bis(2-butyloctanoate)]	28.03	27.31	28.49	29.04	28.69	29.24	30.24	31.19	5.33E+04	5.42E+07	7.43E+08	6.54E+08	4.67E+08	9.17E+06	1.88E+06	1.88E+06
100.49	0.10	81.42	2.78	CCCCCCCCCCC(O)CN(CCN1CCN(CCN(CC(O)CCCCCCCCCC)CC(O)CCCCCCCCCC)CC1)CCN(CC(O)CCCCCCCCCC)CC(O)CCCCCCCCCC (stereo not shown) [Compound C12-200, 1,1′-((2-(4-(2-((2-(bis (2-hydroxydodecyl)amino)ethyl) (2-hydroxydodecyl)amino)ethyl)piperazin-1-yl)ethyl)azanediyl)bis (dodecan-2-ol), reference compound]	28.61	27.17	28.62	28.98	28.97	29.23	30.16	31.23	–	–	–	–	–	–	–	–
